From ChEMBL document CHEMBL1201862, “PubChem BioAssay data set” (2004)
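Where inhibition never reached the appropriate level, the endpoint shown equals the highest concentration tested. Otherwise, values were interpolated linearly from a five-concentration, 48-hour dose response in 96-well plates. Abbreviation: GI50, concentration required for 50% inhibition of growth.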 Active and inactive are the calls of the source. Rule as the data show it: active = GI50 up to about 1.1 µM and inactive = higher.

Key:
Assay in all cases: NCI tumour cell line growth inhibition, 48 h
K562 = test system: K562
NCI-H226 = test system: NCI-H226
Hs-578T = test system: Hs-578T
Malme-3M = test system: Malme-3M
NCI-H23 = test system: NCI-H23
MDA-MB-231 = test system: MDA-MB-231
KM12 = test system: KM12
HCT-116 = test system: HCT-116
T47D = test system: T47D
NCI-H460 = test system: NCI-H460
RXF 393 = test system: RXF 393
A549 = test system: A549
MDA-MB-435 = test system: MDA-MB-435
SNB-19 = test system: SNB-19
SF-539 = test system: SF-539
HL-60 = test system: HL-60
MDA-N = test system: MDA-N
UACC-62 = test system: UACC-62
OVCAR-4 = test system: OVCAR-4
HOP-62 = test system: HOP-62
786-0 = test system: 786-0
HCC 2998 = test system: HCC 2998
ACHN = test system: ACHN
RPMI-8226 = test system: RPMI-8226
SW-620 = test system: SW-620
SK-MEL-28 = test system: SK-MEL-28
DU-145 = test system: DU-145
MCF7 = test system: MCF7
HT-29 = test system: HT-29
SF-268 = test system: SF-268
HCT-15 = test system: HCT-15
OVCAR-3 = test system: OVCAR-3
TK-10 = test system: TK-10
UO-31 = test system: UO-31
M14 = test system: M14
A498 = test system: A498
OVCAR-5 = test system: OVCAR-5
SK-OV-3 = test system: SK-OV-3
BT-549 = test system: BT-549
LOX IMVI = test system: LOX IMVI
SR = test system: SR
SNB-75 = test system: SNB-75
NCI/ADR-RES = test system: NCI/ADR-RES
HOP-92 = test system: HOP-92
SK-MEL-2 = test system: SK-MEL-2
SK-MEL-5 = test system: SK-MEL-5
U-251 = test system: U-251
COLO 205 = test system: COLO 205
UACC-257 = test system: UACC-257
SN12C = test system: SN12C
CAKI-1 = test system: CAKI-1
OVCAR-8 = test system: OVCAR-8
SF-295 = test system: SF-295
MOLT-4 = test system: MOLT-4
EKVX = test system: EKVX
IGROV-1 = test system: IGROV-1
CCRF-CEM = test system: CCRF-CEM
PC-3 = test system: PC-3
NCI-H522 = test system: NCI-H522

Measured: GI50

COc1ccc(-c2cn3c(nc4ccccc43)c(/C=C/c3cccs3)n2)cc1
26.7 µM: HCT-15
inactive: K562 9.48 µM | NCI-H226 > 100 µM | Hs-578T 28.4 µM | Malme-3M 23.4 µM | NCI-H23 33.8 µM | MDA-MB-231 > 100 µM | KM12 11.9 µM | HCT-116 51.2 µM | T47D 43.2 µM | NCI-H460 32.4 µM | RXF 393 > 100 µM | A549 55.6 µM | MDA-MB-435 4.28 µM | SNB-19 92.3 µM | SF-539 89.7 µM | HL-60 20.4 µM | MDA-N 7.53 µM | UACC-62 68.2 µM | OVCAR-4 49.7 µM | HOP-62 83 µM | 786-0 71.3 µM | HCC 2998 49.5 µM | ACHN > 100 µM | RPMI-8226 15.4 µM | SW-620 41.1 µM | SK-MEL-28 80 µM | DU-145 > 100 µM | MCF7 15 µM | HT-29 29.8 µM | SF-268 59.2 µM | OVCAR-3 21.6 µM | TK-10 > 100 µM | UO-31 > 100 µM | M14 37.8 µM | A498 > 100 µM | OVCAR-5 > 100 µM | SK-OV-3 75.2 µM | BT-549 63 µM | LOX IMVI 35.3 µM | SR 2.65 µM | SNB-75 52.6 µM | NCI/ADR-RES 13 µM | HOP-92 16.9 µM | SK-MEL-2 10.6 µM | SK-MEL-5 15.8 µM | U-251 53.1 µM | COLO 205 29.8 µM | UACC-257 62.7 µM | SN12C > 100 µM

COP(=O)(OC)C12CCOCCN1c1ccccc1C2=O (configuration not stated)
inactive: NCI-H226 > 100 µM | Hs-578T > 100 µM | Malme-3M > 100 µM | NCI-H23 > 100 µM | MDA-MB-231 > 100 µM | KM12 > 100 µM | CAKI-1 > 100 µM | HCT-116 > 100 µM | T47D > 100 µM | OVCAR-8 > 100 µM | NCI-H460 > 100 µM | A549 > 100 µM | MDA-MB-435 > 100 µM | SNB-19 > 100 µM | SF-539 > 100 µM | HL-60 > 100 µM | MDA-N > 100 µM | UACC-62 > 100 µM | OVCAR-4 > 100 µM | HOP-62 > 100 µM | 786-0 > 100 µM | HCC 2998 > 100 µM | SF-295 > 100 µM | ACHN > 100 µM | RPMI-8226 > 100 µM | SW-620 > 100 µM | SK-MEL-28 > 100 µM | DU-145 > 100 µM | MCF7 > 100 µM | HT-29 > 100 µM | SF-268 > 100 µM | OVCAR-3 > 100 µM | TK-10 > 100 µM | UO-31 > 100 µM | M14 > 100 µM | MOLT-4 > 100 µM | A498 > 100 µM | OVCAR-5 > 100 µM | EKVX > 100 µM | IGROV-1 > 100 µM | SK-OV-3 > 100 µM | BT-549 > 100 µM | SNB-75 > 100 µM | NCI/ADR-RES > 100 µM | CCRF-CEM > 100 µM | HOP-92 > 100 µM | PC-3 > 100 µM | SK-MEL-2 > 100 µM | SK-MEL-5 > 100 µM | U-251 > 100 µM | NCI-H522 > 100 µM | COLO 205 > 100 µM | UACC-257 > 100 µM | SN12C > 100 µM
> 100 µM: HCT-15

CCOC(=O)/C(C(=O)Nc1cccc(Cl)c1)=C(/N)N1CCCC1
inactive: K562 > 100 µM | NCI-H226 > 100 µM | Hs-578T > 100 µM | Malme-3M > 100 µM | NCI-H23 > 100 µM | MDA-MB-231 > 100 µM | KM12 > 100 µM | CAKI-1 > 100 µM | HCT-116 > 100 µM | T47D > 100 µM | OVCAR-8 > 100 µM | NCI-H460 > 100 µM | RXF 393 > 100 µM | A549 > 100 µM | MDA-MB-435 > 100 µM | SNB-19 > 100 µM | SF-539 > 100 µM | HL-60 > 100 µM | MDA-N > 100 µM | UACC-62 > 100 µM | OVCAR-4 > 100 µM | HOP-62 > 100 µM | 786-0 > 100 µM | HCC 2998 > 100 µM | SF-295 > 100 µM | ACHN > 100 µM | RPMI-8226 > 100 µM | SW-620 > 100 µM | SK-MEL-28 > 100 µM | DU-145 > 100 µM | MCF7 > 100 µM | HT-29 > 100 µM | SF-268 > 100 µM | OVCAR-3 > 100 µM | TK-10 > 100 µM | M14 > 100 µM | MOLT-4 > 100 µM | A498 > 100 µM | OVCAR-5 > 100 µM | EKVX > 100 µM | IGROV-1 > 100 µM | SK-OV-3 > 100 µM | BT-549 > 100 µM | LOX IMVI > 100 µM | SNB-75 > 100 µM | NCI/ADR-RES > 100 µM | CCRF-CEM > 100 µM | PC-3 > 100 µM | SK-MEL-2 > 100 µM | U-251 > 100 µM | NCI-H522 > 100 µM | COLO 205 > 100 µM | UACC-257 > 100 µM | SN12C > 100 µM
> 100 µM: HCT-15

c1ccc(/N=C2/SC(c3ccccc3)(c3ccccc3)c3ccccc32)cc1
> 100 µM: HCT-15
inactive: K562 > 100 µM | NCI-H226 > 100 µM | Hs-578T > 100 µM | Malme-3M > 100 µM | NCI-H23 > 100 µM | MDA-MB-231 > 100 µM | KM12 > 100 µM | CAKI-1 > 100 µM | HCT-116 64.3 µM | T47D > 100 µM | OVCAR-8 > 100 µM | NCI-H460 > 100 µM | RXF 393 > 100 µM | A549 > 100 µM | MDA-MB-435 > 100 µM | SNB-19 > 100 µM | SF-539 > 100 µM | HL-60 > 100 µM | MDA-N > 100 µM | UACC-62 > 100 µM | OVCAR-4 > 100 µM | HOP-62 > 100 µM | 786-0 > 100 µM | HCC 2998 > 100 µM | SF-295 > 100 µM | ACHN > 100 µM | RPMI-8226 > 100 µM | SW-620 > 100 µM | SK-MEL-28 > 100 µM | DU-145 > 100 µM | MCF7 87.7 µM | HT-29 > 100 µM | SF-268 > 100 µM | OVCAR-3 > 100 µM | TK-10 > 100 µM | UO-31 > 100 µM | M14 > 100 µM | MOLT-4 > 100 µM | A498 > 100 µM | OVCAR-5 > 100 µM | EKVX > 100 µM | IGROV-1 > 100 µM | SK-OV-3 > 100 µM | BT-549 > 100 µM | LOX IMVI 71.6 µM | SNB-75 > 100 µM | NCI/ADR-RES > 100 µM | CCRF-CEM > 100 µM | HOP-92 > 100 µM | PC-3 > 100 µM | SK-MEL-2 > 100 µM | SK-MEL-5 57.8 µM | U-251 10.4 µM | NCI-H522 > 100 µM | COLO 205 > 100 µM | UACC-257 > 100 µM | SN12C > 100 µM

Nc1cc(CO)cc(Nc2nc3ccc(Cl)cc3c3[nH]c4ccccc4c23)c1
inactive: K562 4.67 µM | Hs-578T 5.43 µM | Malme-3M 5.27 µM | NCI-H23 6.28 µM | MDA-MB-231 2.55 µM | KM12 4.98 µM | CAKI-1 2.69 µM | HCT-116 3.34 µM | T47D 3.74 µM | OVCAR-8 4.28 µM | NCI-H460 2.2 µM | A549 3.2 µM | MDA-MB-435 3.85 µM | SNB-19 4.32 µM | SF-539 3.34 µM | HL-60 21.7 µM | MDA-N 6.65 µM | UACC-62 1.85 µM | HOP-62 7.19 µM | 786-0 1.98 µM | SF-295 3.56 µM | ACHN 3.17 µM | RPMI-8226 2.96 µM | SW-620 4.44 µM | DU-145 3.65 µM | HT-29 3.64 µM | SF-268 2.86 µM | TK-10 6.05 µM | UO-31 2.9 µM | M14 4.98 µM | MOLT-4 4.2 µM | OVCAR-5 3.85 µM | EKVX 1.52 µM | IGROV-1 1.54 µM | SK-OV-3 3.24 µM | BT-549 10.9 µM | SR 2.16 µM | NCI/ADR-RES 8.45 µM | CCRF-CEM 4.79 µM | HOP-92 2.43 µM | PC-3 4.92 µM | SK-MEL-2 4.27 µM | U-251 3.05 µM | NCI-H522 2.79 µM | COLO 205 2.29 µM | UACC-257 10.7 µM | SN12C 2.89 µM
active: MCF7 0.67 µM
3.92 µM: HCT-15
